The results in this text go back to publication PMC9000499, “New Triazolyl N^N Bidentate Rh(III), Ir(III), Ru(II) and Os(II) Complexes: Synthesis and Characterization, Probing Possible Relations between Cytotoxicity with Transfer Hydrogenation Efficacy and Interaction with Model Biomolecules” (Molecules, 2022).

For data set [1], the system named is normal kidney cells (BHK21). Put plainly: MTS in vitro cytotoxicity assay, BHK21. The format is cell-based. Conditions: 96 h exposure, mean ± SD n = 6. The source says:
(§1) The absorbance is directly proportional to cell viability.

The nature of data set [2]: MTS in vitro cytotoxicity assay, HEK293. The format is cell-based. Conditions: MTS assay, 96 h exposure, mean ± SD n = 6.
Source text: as §1

In data set [3] the test system is lung cancer cells (A549). Put plainly: MTS in vitro cytotoxicity assay, A549. The format is cell-based. Conditions: 96 h exposure, mean ± SD n = 6.
Source text: as §1

The test system of data set [4] is cervical cancer cells (Hela). Description: MTS in vitro cytotoxicity assay, Hela. Conditions: 96 h exposure, mean ± SD n = 6. The format is cell-based.
Source text: as §1

Data set [5] deals with Lymphoma cells (MT4). Description: MTS in vitro cytotoxicity assay, MT4. The format is cell-based. Conditions: 96 h exposure, mean ± SD n = 6.
Source text: as §1

Experiment in data set [6]: not given
This is another data set of the same source.

For data set [7] the following is noted: qualitative, aqueous model system / PBS.
Data set [8] relates to cancer cells (HeLa, HEK293, A549, MT4). Conditions: summary over the selected cancer cell lines, MTS assay; for EC50: read-out: EC50 against the cancer cells. The procedure:
(§2) An MTS (3-(4,5-dimethylthiazol-2-yl)-5-(3-carboxymethoxy-phenyl)-2-(4-sulfophenyl)-2H-tetrazolium) in vitro cytotoxicity assay was conducted to determine change in cell viability using a colour change. The MTS compound (yellow) is metabolised by viable cells to form a dark purple coloured compound, visible through UV-Vis spectroscopy at 490 nm. The absorbance is directly proportional to cell viability. Samples were tested across three plates in duplicate (n = 6), and the average value was reported.
(§3) HeLa (cervical cancer cells), Hek293 (kidney cancer cells), BHK21 (normal kidney cells), MT4 (lymphoma cells) and A549 (lung cancer cells) were grown using standard tissue culture techniques. The cells (1 × 10^5 cells/mL) were incubated in 96-well plates at 37 °C overnight, with the subsequent addition of the supplied compounds, at concentrations (100 µg/mL, 50.0 µg/mL, 25.0 µg/mL, 12.5 µg/mL, 6.25 µg/mL, 3.125 µg/mL and 0 µg/mL). The cells were left to incubate for four days, after which MTS (5 µL) was added to the cells. The absorbance values were measured at 490 nm after 1 h, 2 h and 4 h incubation periods, averaged, and the viability curves were drawn up.

The test system of data set [9] is all the tested cell lines (Hela, HEK293, BHK21, MT4, A549). Conditions: summary over all tested cell lines, MTS assay. As for the experimental part: as §2, §3
Setting [10] is: base: NaHCO3 1.0 equiv., PBS pH 7.4, 310 K, 24 h.
Where [11] appears, read: base: None, 2.0 equiv. halide abstractor AgBF4 added, PBS pH 7.4, 310 K, 24 h.
Where [12] appears, read: base: None, 1 mol% catalyst, 2.0 equiv. sodium formate, PBS pH 7.4, 310 K, 24 h.
Where [13] appears, read: percentage of lactate formed, base: NaHCO3 1.0 equiv., PBS pH 7.4, 310 K, 24 h.
Setting [14] is: percentage of lactate formed, base: None, 2.0 equiv. AgBF4 added, PBS pH 7.4, 310 K, 24 h.
[15] abbreviates: percentage of lactate formed, base: None, PBS pH 7.4, 310 K, 24 h.

Values joined by “and” are separate entries in the source; they are usually repeats but may differ in a detail not shown here. Equal entries are not always repeated. Where two headings read alike, the source gives them in different places. A value given as a limit tells only on which side of the number the result lay.

`CC(=O)OC[C@H]1O[C@@H]([S-])[C@H](OC(C)=O)[C@@H](OC(C)=O)[C@@H]1OC(C)=O.CCP(CC)CC.[Au+]` [Auranofin, reference compound]: the concentration for a half-maximal effect (EC50) was under 0.1 µM in data set [1]; under 0.1 µM in data set [2]; 12 ± 2 µM in [3]; under 2 µM in data set [4]; under 2 µM in data set [5].
As to `Cc1ccc(C(C)C)cc1.F[B-](F)(F)F.[Cl-].[Ru+2].c1ccc(Cn2cc(-c3ccccn3)nn2)cc1` [Complex C1, [Chlorido(2-(1-benzyl-(3-κN)-1,2,3-triazol-4-yl)-(2′-κN)-pyridine)(η^6-p-cymene)ruthenium(II)] tetrafluoroborate], the “Time with no detectable changes in the 1H NMR spectra (stability)” value (“Time with no detectable changes” for short) (10% DMSO-d6 in phosphate-buffered D2O (pH 7.4), 37 °C) is given as “over 72 h”. Moreover, the “Selectivity (%)” value in data set [6] (pH 7.4) was 100% and >99%. Also, the EC50 in data set [1] is 113 ± 17 µM; in data set [2] it was over 500 µM; in data set [3] it was over 500 µM; in data set [4] it was over 500 µM; in data set [5], 37 ± 5 µM. In addition, the “EC50 BHK21” value in data set [1] was “low cytotoxicities”.
In the case of `Cc1ccc(C(C)C)cc1.[Cl-].[Ru+2].c1ccc(Cn2cc(-c3ccccn3)nn2)cc1.c1ccc([B-](c2ccccc2)(c2ccccc2)c2ccccc2)cc1` [Complex C2, [Chlorido(2-(1-benzyl-(3-κN)-1,2,3-triazol-4-yl)-(2′-κN)-pyridine)(η^6-p-cymene)ruthenium(II)] tetraphenylborate], in [7], the “Solubility in aqueous model system” value is reported as “poorly soluble”. The EC50 in [1] is 151 ± 0.6 µM; in data set [2], 11 ± 1.5 µM; in data set [3], 14 ± 4 µM; in data set [4], 15 ± 1.7 µM; in data set [8] it was 9 to 16 µM and ≤ 16 µM; in data set [5] it was 9 ± 1 µM. The “EC50 BHK21” value in [1] is reported as “low cytotoxicities”.
As to `Cc1ccc(C(C)C)cc1.F[B-](F)(F)F.[Cl-].[Os+2].c1ccc(Cn2cc(-c3ccccn3)nn2)cc1` [Complex C3, [Chlorido(2-(1-benzyl-(3-κN)-1,2,3-triazol-4-yl)-(2′-κN)-pyridine)(η^6-p-cymene)osmium(II)] tetrafluoroborate], the “Conversion (%)” value worked out at 0.1 ± 0.03% in data set [6] (setting [10]), 3 ± 1% in [6] (setting [11]) and 1 ± 0.3% in [6] (setting [12]). Besides, the “Selectivity (%)” value in data set [6] (setting [13]) is given as 100%; in data set [6] (setting [14]), over 99%; in data set [6] (setting [15]), 100%. Besides, the EC50 in data set [1] was over 500 µM; in [2], over 500 µM; in data set [3], over 500 µM; in data set [4], over 500 µM; in data set [5], 133 ± 12 µM.
Take `Cc1c(C)c(C)[c-](C)c1C.F[B-](F)(F)F.[Cl-].[Rh+3].c1ccc(Cn2cc(-c3ccccn3)nn2)cc1` [Complex C4, [Chlorido(2-(1-benzyl-(3-κN)-1,2,3-triazol-4-yl)-(2′-κN)-pyridine)(η^6-pentamethylcypentadiene)rhodium(III)] tetrafluoroborate]: the EC50 in data set [1] was over 500 µM; in data set [2], over 500 µM; in data set [3], over 500 µM; in data set [4] it was at least 300 µM; in data set [5], 60 ± 8 µM.
For the compound `Cc1c(C)c(C)[c-](C)c1C.F[B-](F)(F)F.[Cl-].[Ir+3].c1ccc(Cn2cc(-c3ccccn3)nn2)cc1` [Complex C5, [Chlorido(2-(1-benzyl-(3-κN)-1,2,3-triazol-4-yl)-(2′-κN)-pyridine)(η^6-pentamethylcypentadiene)iridium(III)] tetrafluoroborate], for the setting “pH 7.4”, the “Time with no detectable changes” value is reported as “over 72 h”. Moreover, the “Conversion (%)” value in [6] (setting [10]) was found to be 0.1 ± 0.02%; in [6] (setting [11]), 20 ± 3%; in [6] (setting [12]) it was 14 ± 2%. The TON in data set [6] (setting [10]) is at most 0.1; in [6] (setting [11]), 20; in data set [6] (setting [12]), 14. The “Selectivity (%)” value in [6] (setting [13]) was 100%; in data set [6] (setting [14]), over 99%; in data set [6] (setting [15]) it was 100%. In [6] (summary, base condition not specified), the “Conversion of pyruvate to lactate” value is under 14%. Moreover, the EC50 is 55 ± 1 µM in [1]; over 500 µM in [2]; over 500 µM in data set [3]; over 500 µM in [4]; 67 ± 6 µM in data set [5]. The “EC50 BHK21” value in [1] is listed as “low cytotoxicities”.
Take `Cc1ccc(C(C)C)cc1.F[B-](F)(F)F.[Cl-].[Ru+2].c1ccc(Cn2cc(-c3ccccn3)nn2)nc1` [Complex C6, [Chlorido(2-((4-(pyridine-2-yl)-(3-κN)-1,2,3-trizol-1-yl)methyl)-(2′-κN)-pyridine)(η^6-p-cymene)ruthenium(II)] tetrafluoroborate]: the “EC50 BHK21” value in data set [1] was “N.R”. Further, the EC50 in [2] was over 500 µM; in data set [4] it was 388 ± 70.9 µM; in data set [5] it was 158 ± 44.2 µM. For the same compound, the “EC50 A549” value in data set [3] is “N.R”. Besides, the “EC50 against the cancer cells” value in [8] is “completely inactive against most cancer cells”.
Take `Cc1ccc(C(C)C)cc1.[Cl-].[Ru+2].c1ccc(Cn2cc(-c3ccccn3)nn2)nc1.c1ccc([B-](c2ccccc2)(c2ccccc2)c2ccccc2)cc1` [Complex C7, [Chlorido(2-((4-(pyridine-2-yl)-(3-κN)-1,2,3-trizol-1-yl)methyl)-(2′-κN)-pyridine)(η^6-p-cymene)ruthenium(II)] tetraphenylborate]: in [7], the “Solubility in aqueous model system” value is “poorly soluble”. The EC50 was 67 ± 7.3 µM in data set [1]; 17 ± 4.8 µM in data set [2]; 53 ± 6 µM in [3]; 26 ± 0.8 µM in data set [4]; 20 ± 4.8 µM in data set [5].
On to `Cc1ccc(C(C)C)cc1.F[B-](F)(F)F.[Cl-].[Os+2].c1ccc(Cn2cc(-c3ccccn3)nn2)nc1` [Complex C8, [Chlorido(2-((4-(pyridine-2-yl)-(3-κN)-1,2,3-trizol-1-yl)methyl)-(2′-κN)-pyridine)(η^6-p-cymene)osmium(II)] tetrafluoroborate], for which the EC50 in [1], in data set [2] and in data set [3] was over 500 µM throughout. In addition, in [4], the “EC50 Hela” value was “N.R”. Besides, the “EC50 / activity against all the tested cell lines” value in [9] was “not active”. The “EC50 MT4” value in [5] is on record as “N.R”.
In the case of `Cc1c(C)c(C)[c-](C)c1C.F[B-](F)(F)F.[Cl-].[Rh+3].c1ccc(Cn2cc(-c3ccccn3)nn2)nc1` [Complex C10, [Chlorido(2-((4-(pyridine-2-yl)-(3-κN)-1,2,3-trizol-1-yl)methyl)-(2′-κN)-pyridine)(η^6-pentamethylcypentadiene)rhodium(III)] tetrafluoroborate], the “EC50 BHK21” value in data set [1] is reported as “N.R”. For the same compound, the EC50 in [2] and in data set [5] was over 500 µM throughout. The “EC50 A549” value in data set [3] is “N.R”. Moreover, in data set [4], the “EC50 Hela” value is “N.R”.
Turning to `Cc1c(C)c(C)[c-](C)c1C.F[B-](F)(F)F.[Cl-].[Ir+3].c1ccc(Cn2cc(-c3ccccn3)nn2)nc1` [Complex C11, [Chlorido(2-((4-(pyridine-2-yl)-(3-κN)-1,2,3-trizol-1-yl)methyl)-(2′-κN)-pyridine)(η^6-pentamethylcypentadiene)iridium(III)] tetrafluoroborate], where the note is “pH 7.4”, the “Time with no detectable changes” value is “over 72 h”. Further, the “Conversion (%)” value in data set [6] (setting [12]) amounted to 70 ± 5%. Further, in [1], the “EC50 BHK21” value is “non-toxic and completely inactive and N.R”. The EC50 in [2] was over 500 µM; in [3], over 500 µM; in data set [4] it was 2.5 ± 1 µM; in data set [8] it was under 5 µM; in data set [5], 111 ± 7 µM.
